Key:
[1] = test system: bovine aortic endothelial cells receptor for Ang II; assay: Binding of ^125 I-Ang II to cultured bovine aortic endothelial cells
Description: We first studied the role of angiotensin (Ang) II in the regulation of endothelial fibrinolysis, by determining if Ang II binds to the target cell, which in this case was bovine aortic endothelial cells. In these experiments, we used early passage bovine aortic endothelial cells (P2-4) grown to confluence in DMEM supplemented with penicillin, streptomycin, and 10% newborn calf serum.
To test whether the Ang II receptor on the bovine aortic endothelial cells is similar or identical to the classic AT1 receptor, we measured the potency of the antagonist saralasin for binding.

PAI-1 [2] = assay: PAI-1 secretion into conditioned media of bovine aortic endothelial cells (ELISA; activity); assay type: cell-based
Experimental: FIG. 6 is a dose response curve of PAI-1 secretion into the conditioned media of bovine aortic endothelial cells following exposure to Ang II.
In these experiments, we investigated the effects of Ang II on the secretion of PAI-1 into the media of cultured endothelial cells. […] Ang II (in the concentrations indicated) was added to washed, confluent cultures of bovine aortic endothelial cells, and the conditioned media was removed for assay after 18 hour. Levels of PAI-1 antigen in the media were determined using a specific ELISA for PAI-1, such as the assay described in DeClerk et al., Blood (1988) 71:220-225, or the assay sold by Biopool, AB, Umea, Sweden.
(§1) The increases in PAI-1 activity and antigen observed thus far have been associated with an approximate 4-fold increase in PAI-1 message (FIGS. 7 and 8). The cells for these experiments were incubated for 8 hour in fresh serum-free media containing the indicated concentrations of Ang II. Total RNA was extracted and analyzed by Northern blotting.

PAI-1 mRNA = PAI-1 mRNA induction in bovine aortic endothelial cells (Northern / slot blot); assay type: cell-based; settings: for effect on Ang II stimulation of PAI-1 mRNA levels: antagonist 1 μM
Experimental: FIG. 7 is a Northern blot showing the induction of PAI-1 RNA after treatment of bovine aortic endothelial cells with angiotensin II.
FIG. 8 is a graph showing the dose response of PAI-1 RNA induction by Ang II.
FIG. 9 is a Northern blot showing the time course of induction of PAI-1 RNA after treatment of bovine aortic endothelial cells with 20 nM angiotensin II.
FIG. 10 is a graph showing the PAI-1 mRNA levels as a function of time, in bovine aortic endothelial cells treated with 20 nM angiotensin II.
as §1
Ang II is also associated with a time-dependent increase in PAI-1 mRNA that peaks 6-8 hrs after exposure to Ang II, as assessed by Northern blot analysis (FIG. 9). Confluent cultures of bovine aortic endothelial cells were incubated with 20 nM Ang II in serum-free DMEM. Total cytoplasmic RNA was extracted at the indicated times and analyzed by Northern blotting (FIG. 9). The results corresponding to the 3.3-kb PAI-1 mRNA species were quantified by transmission densitometry. To control for variability in gel loading, the blots were stripped and rehybridized with a cDNA probe for β-actin. Normalized data are plotted in the FIG. 10.

t-PA [3] = assay: t-PA antigen or activity in conditioned media of bovine aortic endothelial cells; assay type: cell-based
PAI-1 [4] = assay: Plasma PAI-1 during Ang II infusion in human volunteers; assay type: in vivo
Experimental: (§2) Second, this binding appears to have a functional effect on bovine aortic endothelial cells in inducing the synthesis of PAI-1 message and the secretion of PAI-1 into the conditioned media. Importantly, we have observed increased levels of PAI-1 mRNA induced by physiologically relevant doses of Ang II (i.e. 0.1 nM). The potential significance of these in vitro findings are supported by recent data obtained during the infusion of Ang II into healthy human volunteers. In these studies, normotensive volunteers (N=4) received an infusion of Ang II in graded doses of 1.0, 3.0. and 10.0 ng/kg/min., while 4 additional normotensive volunteers received an infusion of D5W. Plasma levels of t-PA and PAI-1 were measured prior to and at the conclusion of each dose. […] Similar findings have been obtained in an additional group of hypertensive volunteers (N=6) that received a constant infusion of Ang II (3 ng/kg/min) over a 45 min period. In these individuals, we observed a 60% increase in plasma PAI-1 compared with pretreatment levels (p<0.04).

t-PA [5] = assay: Plasma t-PA during Ang II infusion in human volunteers; assay type: in vivo
Experimental: as §2

[6] = Mean blood pressure during graded infusions in rabbits; assay type: in vivo, New Zealand White rabbits; settings: for effect on mean blood pressure: graded infusions, healthy rabbits
Description: FIG. 11 is a graph of the mean BP at baseline and after increasing doses of Ang II alone, Ang IV alone, saline, and Ang II in rabbits pretreated with amastatin. Error bars represent SEM.
(§3) We have also undertaken a series of experiments designed to identify the specific form of angiotensin that is responsible for the increased plasma PAI-1 levels seen in our human studies. We examined the effects of graded infusions of Ang II and Ang IV on blood pressure and plasma PAI activity in healthy New Zealand White rabbits.

PAI-1 [7] = assay: Plasma PAI-1 during graded infusions in rabbits; assay type: in vivo, New Zealand White rabbits; settings: for effect on plasma PAI-1 levels: graded infusions, healthy rabbits
Description: FIG. 12 is a graph of the mean plasma PAI-1 activity at baseline and after increasing doses of Ang II alone, Ang IV alone, saline, and Ang II in rabbits pretreated with amastatin. Error bars represent SEM.
as §3

AT1 receptor = settings: well established property of the AT1 receptor; cited from earlier work
[8] = Ang II after pretreatment with amastatin

O[C@H](CS)[C@H](O)CS (relative stereo) [DTT]
reduction in total binding ([1]; 5 mM DTT, ^125 I-Ang II (0.27 nM)): 50%

CC[C@H](C)[C@H](NC(=O)[C@H](Cc1ccc(O)cc1)NC(=O)[C@@H](NC(=O)[C@H](CCCNC(=N)N)NC(=O)[C@@H](N)CC(=O)O)C(C)C)C(=O)N[C@@H](Cc1cnc[nH]1)C(=O)N1CCC[C@H]1C(=O)N[C@@H](Cc1ccccc1)C(=O)O [Ang II, angiotensin II]
effect on secretion of PAI-1 into media (PAI-1 [2]; 18 hour exposure, PAI-1 antigen ELISA): induce the secretion of PAI-1 in a dose-dependent manner | EC50 (PAI-1 [2]; PAI-1 antigen in conditioned media, 18 hour): ~20 nM | changes in PAI-1 activity (PAI-1 [2]; after reactivation of latent protein with guanidine hydrochloride): corresponding changes in PAI-1 activity | concentration at which increased levels of PAI-1 mRNA were observed (PAI-1 mRNA): 0.1 nM | time of peak PAI-1 mRNA after exposure (PAI-1 mRNA; 20 nM Ang II, serum-free DMEM): 6 to 8 h | increase in PAI-1 message (PAI-1 mRNA; 8 hour, serum-free media, normalized to β-actin): ~4 fold | effect on t-PA antigen or activity in conditioned media (t-PA [3]): not observed a similar increase in t-PA antigen or activity | effect on PAI-1 secretion/response in normotensive volunteers (PAI-1 [4]; graded infusion 1.0, 3.0 and 10.0 ng/kg/min): increased in the subjects that received the Ang II infusions in a dose-dependent manner | increase in plasma PAI-1 compared with pretreatment (PAI-1 [4]; hypertensive volunteers (N=6), 3 ng/kg/min over 45 min, p<0.04): 60% | plasma PAI-1 level (PAI-1 [4]; normotensive volunteers (N=4), infusion graded 1.0, 3.0 and 10.0 ng/kg/min, from 14.7±5.3, mean±SEM, p<0.001 by ANOVA): 33.5±10.6 | plasma t-PA levels (t-PA [5]): plasma t-PA levels do not increase | effect on mean blood pressure [6]: dose-dependent increase in mean blood pressure | effect on plasma PAI-1 levels (PAI-1 [7]): dose-dependent increase in plasma PAI-1 levels

CC[C@H](C)[C@H](NC(=O)[C@H](Cc1ccc(O)cc1)NC(=O)[C@@H](N)C(C)C)C(=O)N[C@@H](Cc1cnc[nH]1)C(=O)N1CCC[C@H]1C(=O)N[C@@H](Cc1ccccc1)C(=O)O [Ang IV, VAL-TYR-ILE-HIS-PRO-PHE]
effect on mean blood pressure [6]: stable mean BP | effect on plasma PAI-1 levels (PAI-1 [7]): dose-dependent increase in plasma PAI-1 levels

CCCCc1nc(Cl)c(CO)n1Cc1ccc(-c2ccccc2-c2nn[nH]n2)cc1 [Dup 753]
effect on Ang II stimulation of PAI-1 mRNA levels (PAI-1 mRNA): does not appear to be prevented

CC(C)C[C@@H](N)[C@H](O)C(=O)N[C@H](C(=O)N[C@H](C(=O)N[C@@H](CC(=O)O)C(=O)O)C(C)C)C(C)C [amastatin]
effect on mean blood pressure, Ang II after amastatin pretreatment [6, 8]: expected increases in blood pressure | PAI-1 response, Ang II after amastatin pretreatment (PAI-1 [7]; [8]): PAI-1 response was reduced considerably

CNCC(=O)N[C@@H](CCCN=C(N)N)C(=O)N[C@H](C(=O)N[C@@H](Cc1ccc(O)cc1)C(=O)N[C@H](C(=O)N[C@@H](Cc1cnc[nH]1)C(=O)N1CCC[C@H]1C(=O)N[C@@H](C)C(=O)O)C(C)C)C(C)C [saralasin, (Sar^1,Val^5,Ala^8)-angiotensin]
effect on Ang II stimulation of PAI-1 mRNA levels (PAI-1 mRNA): does not appear to be prevented | Ki (AT1 receptor): 0.4 nM

^125 I-Ang II: ^125 I labelled Ang II
character of binding to bovine aortic endothelial cells ([1]; FIG. 2): saturable and specific manner | Kd ([1]; Scatchard transformation of specific binding, room temperature, read-out: apparent Kd): ~2 nM | Bmax ([1]; Scatchard transformation, room temperature): 105 fmol/10^6 cells | time to binding equilibrium ([1]; room temperature): ≤ 45 min

Reference: patent US5599663A, “Angiotensin IV and analogs as regulators of fibrinolysis” (Brighan & Women's Hospital, priority 1993, dated 1997)
